Experimental data taken from patent US11452699B2, “Method of treating or preventing tumors of the central nervous system” (Berg LLC, priority 2011, dated 2022).

Legend:
Assay type in all cases: in vivo
[1] = system: CNS chloroleukemia (metastatic, leukemic CNS tumors); experiment: Long term effect of CoQ10 on CNS chloroleukemia in paraplegic Fischer 344 rats (Example 2)
Experimental: FIG. 4: Long-term Effect of CoQ10 on CNS Leukemia. 300 paraplegic animals with overt CNS leukemia were randomized into two groups of 150 animals each: one received phosphate buffered saline (PBS) and the other group received 100 mg/kg CoQ10 once daily starting on day 1 through day 28 (first cycle). A second cycle of 100 mg/kg CoQ10 once daily started on day 35 and continued through day 62. Animals received two cycles of 28 days each of CoQ10. On days 173 and 195 as indicated by *, 5 animals were sacrificed for necropsy and pathology analysis.
The model of CNS chloroleukemia in Fischer 344 rats provided in Example 1 was used for long term studies of the treatment of metastatic, leukemic CNS tumors. As in Example 1 chloroleukemic cells were injected into the rats as newborns and lipopolysaccharide (LPS) was given as a first-line of treatment. The cure rate with this regimen was approximately 50%, and approximately 10% of survivors developed CNS leukemia as judged by their motor skills and the presence of quadriplegia and paraplegia.
For this study of long term effect of CoQ10 on CNS leukemia, 300 paraplegic animals with overt CNS leukemia were randomized into two groups of 150 animals each. Group one received a saline control. Group two received 100 mg/kg CoQ10 once daily starting on day 1 through day 28 (first cycle). The second cycle started on day 35 and continued through day 62. […]

[2] = system: CNS chloroleukemia (chloroleukemic cell line MIAC51); experiment: Treatment of CNS chloroleukemia in paraplegic Fischer 344 rats with CoQ10 IV (Example 1)
Experimental: (§1) A model of CNS chloroleukemia was created using Fischer 344 rats, in which chloroleukemic cells were injected into the rats as newborns and lipopolysaccharide (LPS) was given as a first-line of treatment. The cure rate with this regimen was approximately 50%, and approximately 10% of survivors developed CNS leukemia as judged by their motor skills and the presence of quadriplegia and paraplegia.
(§2) For this study, 2400 Fischer 344 neonates were injected with the chloroleukemic cell line MIAC51 and treated with LPS. All animals with overt signs of leukemia, i.e., systemic disease, were sacrificed by day 26. […] Of that cohort, 150 animals were selected with hind leg paraplegia on day 40, see FIGS. 1A and 1B. These animals were then re-randomized into 5 groups: group 1 received no treatment, group 2 received excipient control IV, group 3 received 5 mg/kg CoQ10 IV (i.e., 15 mg/kg/day), group 4 received 10 mg/kg IV (i.e., 30 mg/kg/day), and group 5 received 25 mg/kg IV (i.e., 75 mg/kg/day) for 4 weeks, 3 times daily.

chloroleukemic cells = experiment: First-line lipopolysaccharide treatment of chloroleukemia in Fischer 344 rats injected as newborns (model creation)
Experimental: as §1, §2

Row | Molecule | necropsy and pathological analysis for chloroleukemia or CNS tumors ([1]; 100 mg/kg CoQ10, five animals sacrificed on days 173 and 195) | recovery of motor skills / ability to walk ([1]; 100 mg/kg IV once daily, two cycles of 28 days (days 1-28 and 35-62)) | signs of improvement (CNS abnormalities, motor skills) ([2]; 5 mg/kg IV 3 times daily (15 mg/kg/day) for 4 weeks, group 3) | MRI for tumor cells ([2]; 5 mg/kg IV 3 times daily (15 mg/kg/day), group 3) | signs of improvement (CNS abnormalities, motor skills) ([2]; 10 mg/kg IV 3 times daily (30 mg/kg/day) for 4 weeks, group 4) | MRI for tumor cells ([2]; 10 mg/kg IV 3 times daily (30 mg/kg/day), group 4) | recovery of motor skills / ability to walk ([2]; 25 mg/kg IV three times per day (75 mg/kg/day) for 4 weeks, group 5) | MRI for tumor cells ([2]; 25 mg/kg IV three times per day (75 mg/kg/day), group 5, FIGS. 3A and B) | mortality due to CNS tumors (mortality curves) ([2]; FIG. 2, animals treated with or without CoQ10, 5, 10, 25 mg/kg IV 3 times daily) | cure rate (chloroleukemic cells; LPS as first-line treatment after injection of chloroleukemic cells into newborn rats) | survivors that developed CNS leukemia (motor skills, quadriplegia and paraplegia) (chloroleukemic cells; survivors of LPS first-line regimen)
1 | COC1=C(OC)C(=O)C(C/C=C(\C)CC/C=C(\C)CC/C=C(\C)CC/C=C(\C)CC/C=C(\C)CC/C=C(\C)CC/C=C(\C)CC/C=C(\C)CC/C=C(\C)CCC=C(C)C)=C(C)C1=O [CoQ10, Coenzyme Q10] | No evidence of chloroleukemia or CNS tumors were found | significant recovery of their motor skills and regained their ability to walk | did not exhibit any signs of improvement | positive for tumor cells | did not exhibit any signs of improvement | positive for tumor cells | significant recovery of their motor skills and regained their ability to walk | lack of tumor cells | decrease in mortality due to CNS tumors is observed in a dose-dependent manner |  | 
2 | lipopolysaccharide [lipopolysaccharide (LPS)] |  |  |  |  |  |  |  |  |  | approximately 50% | approximately 10%
